≈ marks a conversion by molar mass, not a printed value. Residues, ends and D or L forms follow the SMILES beside them.
Assays:
[1] = system: P. aeruginosa; conditions: P. aeruginosa ATCC 27853; quality control range printed beside broth microdilution MIC of parent strain; cited from earlier work
[2] = system: E. coli ATCC 25922; experiment: microbe, parasite or virus in culture; type: cell-based, Escherichia coli; conditions: ATCC 25922
In short: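 Broth microdilution MIC in Mueller Hinton broth, 12-point 2-fold series from 128 or 64 down to 0.06 or 0.03 μg mL^−1, 5 × 10^5 CFU mL^−1 inoculum. Read visually after 18-20 h at 37 °C without shaking; n ≥ 6. Additional tests in CAMHB, and in MHB with 1% agarose.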

[3] = system: K. pneumoniae; experiment: microbe, parasite or virus in culture; type: cell-based, Klebsiella pneumoniae; conditions: n=2 to 6, mode or median
[4] = system: E. coli clinical isolates; experiment: microbe, parasite or virus in culture
In short: (§1)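 MIC90 from CLSI broth microdilution (M07-A9) in two clinical-isolate panels. US panel (331 isolates, 2010-2012): AA139 diluted in 0.01% acetic acid/0.1% BSA. Worldwide panel (445 isolates, 2011-2013, four regions): CAMHB, with 0.002% Tween 80 added for AA139 and polymyxin B.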

[5] = system: K. pneumoniae clinical isolates; experiment: microbe, parasite or virus in culture
In short: as §1

[6] = system: P. aeruginosa clinical isolates; experiment: microbe, parasite or virus in culture
In short: as §1

[7] = system: K. pneumoniae (#3010 & ST258); experiment: microbe, parasite or virus in culture; type: cell-based, Klebsiella pneumoniae
Procedure: The test media was cation-adjusted MHB (CAMHB, Becton Dickinson) supplemented with 2% Noble Agar (Becton Dickinson) and additionally for AA139 with 0.1% BSA. The agar dilution MIC values were determined as recommended by Clinical and Laboratory Standards Institute (CLSI)[47]. […] The inoculum for the spontaneous mutation plates targeted 10^9 to 10^10 colony-forming units (CFU) per plate. The viable count of each suspension was determined by plating serial ten-fold dilutions onto MHB/NA in duplicate. In addition, agar plates without drug were inoculated as positive controls. Plates were inspected for growth at both 24 and 48 h. Colony counts were determined manually. Using the counts at 48 h, the spontaneous mutation frequency was calculated using the following equation: (average number of colonies from duplicate selection plates)/(total number of cells inoculated onto each plate). If there were no colonies on the antibiotic selection plates, the spontaneous mutation frequency was reported as less than the frequency observed with one colony to indicate that the spontaneous mutation frequency was less than the limit of detection (one CFU).

SMILES	MIC Quality control range [1] [µg/mL]	MIC, MHB [2] [µg/mL]	MIC, Serum (50%) ([3]; K. pneumoniae ATCC 700603 ESBL, OXA-2/SHV-18) [µg/mL]	MIC, Survanta (5%) ([3]; K. pneumoniae BAA-2146 NDM-1) [µg/mL]	MIC against colistin-resistant isolates (did not surpass) ([4]; E. coli with a colistin MIC of 4 to 16 μg mL^−1, US panel) [µg/mL]	MIC90 ([4]; US isolates 2010–2012, E. coli MDR, n = 31) [µg/mL]	MIC90 ([4]; Worldwide isolates 2011–2013, E. coli incl. non-MDR, MDR, XDR, n = 112) [µg/mL]	MIC90 (E. coli) ([4]; clinical isolates) [µg/mL]	MIC90 ([5]; US isolates 2010–2012, K. pneumoniae Non-MDR, n = 24) [µg/mL]	MIC90 ([5]; Worldwide isolates 2011–2013, K. pneumoniae incl. non-MDR, MDR, XDR, n = 114) [µg/mL]	MIC against colistin-resistant isolates (did not surpass) ([5]; all but two K. pneumoniae isolates with a colistin MIC of 8–≥32 μg mL^−1, US panel) [µg/mL]	MIC against colistin-resistant isolates (did not surpass) ([6]; P. aeruginosa with a colistin MIC of >32 μg mL^−1, US panel) [µg/mL]	MIC90 ([6]; US isolates 2010–2012, P. aeruginosa Non-MDR, n = 41) [µg/mL]	MIC90 ([6]; US isolates 2010–2012, P. aeruginosa XDR, n = 37) [µg/mL]	MIC90 ([6]; Worldwide isolates 2011–2013, P. aeruginosa incl. non-MDR, MDR, XDR, n = 111) [µg/mL]	MIC90 (P. aeruginosa) ([6]; clinical isolates) [µg/mL]	Agar (Noble) Dilution MIC ([7]; K. pneumoniae 3010) [µg/mL]	Agar (Noble) Dilution MIC ([7]; K. pneumoniae ST258) [µg/mL]
C[C@H]1[C@H](NC(=O)/C(=N\OC(C)(C)C(=O)O)c2csc(N)n2)C(=O)N1S(=O)(=O)O [AZT]	2 to 8																	
CC(C)[C@@H]1NC(=O)[C@H](Cc2ccc(O)cc2)NC(=O)[C@H](Cc2c[nH]c3ccccc23)NC(=O)[C@@H](NC(=O)[C@H](Cc2ccccc2)NC(=O)CN)CSSC[C@@H](C(=O)N[C@@H](CC(N)=O)C(=O)O)NC(=O)[C@H](CCCNC(=N)N)NC(=O)[C@H](CCCNC(=N)N)NC(=O)[C@H](Cc2ccc(O)cc2)NC(=O)[C@@H]2CSSC[C@H](NC1=O)C(=O)N[C@@H](C)C(=O)N[C@@H](CCCNC(=N)N)C(=O)N[C@@H](CCCNC(=N)N)C(=O)N[C@@H](CC(N)=O)C(=O)NCC(=O)N[C@@H](C)C(=O)N[C@@H](CCCNC(=N)N)C(=O)N[C@@H](C(C)C)C(=O)N2 [AA139] (HELM PEPTIDE1{G.F.C.W.Y.V.C.A.R.R.N.G.A.R.V.C.Y.R.R.C.N}$PEPTIDE1,PEPTIDE1,3:R3-20:R3|PEPTIDE1,PEPTIDE1,7:R3-16:R3$$$V2.0)		0.125 (≈ 0.049 µM)	8 (≈ 3.14 µM)	2 (≈ 0.784 µM)	≤ 0.5	0.5 (≈ 0.196 µM)	0.5 (≈ 0.196 µM)	1.0 (≈ 0.392 µM)	4 (≈ 1.57 µM)	4 (≈ 1.57 µM)	≤ 4	≤ 8	8 (≈ 3.14 µM)	4 (≈ 1.57 µM)	8 (≈ 3.14 µM)	8.0 (≈ 3.14 µM)	16	16
NC[C@H]1O[C@H](O[C@H]2[C@H](O)[C@@H](O[C@H]3O[C@H](CO)[C@@H](O)[C@H](N)[C@H]3O)[C@H](N)C[C@@H]2N)[C@H](N)C[C@@H]1O [TOB]	0.25 to 1																	
